Entries after “also recorded” stand apart in the source; their conditions may differ.
Experiments:
[1] = target: T1, XIAP BIR3 protein (Homo sapiens, UniProt P98170); assay: Competitive fluorescence-polarization binding assay, XIAP BIR3; settings: XIAP BIR3, cIAP1 BIR3 and cIAP2 BIR3
[2] = target: T1, XIAP BIR3 protein; assay: Cell-free functional assay against XIAP BIR3; assay type: biochemical; settings: 1 μM compound, 500 nM XIAP BIR3, MDA-MB-231 cell lysates
[3] = target: cIAP1 (Homo sapiens, UniProt Q13490); assay: cIAP1 degradation in MDA-MB-231 cells; assay type: cell-based
Chain of cIAP1 (Q13490 whole entry): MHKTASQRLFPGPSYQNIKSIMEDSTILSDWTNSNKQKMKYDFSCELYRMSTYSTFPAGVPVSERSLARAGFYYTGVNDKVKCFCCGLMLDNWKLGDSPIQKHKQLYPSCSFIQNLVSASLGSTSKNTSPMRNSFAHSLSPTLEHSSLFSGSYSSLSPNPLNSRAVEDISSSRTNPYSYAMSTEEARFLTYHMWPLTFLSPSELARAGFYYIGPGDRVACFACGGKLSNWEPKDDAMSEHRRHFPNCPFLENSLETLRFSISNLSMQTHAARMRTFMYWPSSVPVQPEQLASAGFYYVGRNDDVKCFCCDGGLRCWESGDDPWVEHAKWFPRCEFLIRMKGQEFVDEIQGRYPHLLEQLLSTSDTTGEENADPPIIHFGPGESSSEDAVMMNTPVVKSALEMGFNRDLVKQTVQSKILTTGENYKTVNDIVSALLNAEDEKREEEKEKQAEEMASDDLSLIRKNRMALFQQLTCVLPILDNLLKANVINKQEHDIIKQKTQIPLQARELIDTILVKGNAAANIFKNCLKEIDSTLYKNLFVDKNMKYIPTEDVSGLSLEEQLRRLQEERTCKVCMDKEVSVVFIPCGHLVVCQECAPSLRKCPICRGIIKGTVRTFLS

[4] = system: more than 100 human cancer cell lines; assay: Screening against more than 100 human cancer cell lines; assay type: cell-based
[5] = system: MDA-MB-231 cancer cells; assay: Trypan blue cell death assay, MDA-MB-231; assay type: cell-based, human; settings: 1 μM for 24 hours
[6] = system: caspase-3 and PARP in MDA-MB-231 cancer cells; assay: Western blot of caspase-3 activation and PARP cleavage, MDA-MB-231; assay type: cell-based, human; settings: 1.5 μM, in as little as 12 hr
[7] = system: normal-like human breast epithelial MCF-12F cells; assay: Trypan blue cell death assay, MCF-12F; assay type: cell-based; settings: concentrations as high as 10 μM, 48 hours
[8] = system: Primary human normal prostate epithelial cells; assay: Trypan blue cell death assay, primary prostate epithelial cells; assay type: cell-based; settings: concentrations as high as 10 μM, 48 hours
[9] = Pharmacokinetics in non-human primates; assay type: in vivo, cynomolgus monkeys; settings: cynomolgus monkey, plasma, po, 5 mg/kg
[10] = Pharmacokinetics in dogs; assay type: in vivo; settings: beagle, dog, po, 10 mg/kg
[11] = system: cIAP1, procaspase-8 and PARP in MDA-MB-231 xenograft tissues; assay: In vivo pharmacodynamics in MDA-MB-231 xenograft tissues; parameters: species or system SCID mice
[12] = Toxicity evaluation in mice; assay type: in vivo; settings: 200 mg/kg, daily for 5 days a week for 2–3 weeks via oral gavage
[13] = Pharmacokinetics in plasma of SCID mice bearing MDA-MB-231 tumors; settings: mouse, in vivo
[14] = Pharmacokinetics in MDA-MB-231 tumor tissues of SCID mice; assay type: in vivo; settings: for Cmax: SCID, mouse, in vivo
[15] = Metabolic stability; assay type: in vitro ADME; settings: IND-enabling studies, data not shown
[16] = Tolerability in dogs; assay type: in vivo; settings: IND-enabling studies, data not shown
[17] = system: MDA-MB-231 xenograft tumors; assay: In vivo antitumor efficacy, MDA-MB-231 xenograft model
[18] = 7.5 mg/kg intravenously, 24-h time-point

T1 sequence (P98170 241-356): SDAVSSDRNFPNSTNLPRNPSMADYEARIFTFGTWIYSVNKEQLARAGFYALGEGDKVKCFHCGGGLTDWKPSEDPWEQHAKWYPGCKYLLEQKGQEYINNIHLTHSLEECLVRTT

CN[C@@H](C)C(=O)N[C@H]1CN(C(=O)CC(C)C)CC[C@H]2CC[C@@H](C(=O)NC(c3ccccc3)c3ccccc3)N2C1=O [compound 2, (5S,8S,10aR)-N-benzhydryl-5-((S)-2-(methylamino)propanamido)-3-(3-methylbutanoyl)-6-oxodeca-hydropyrrolo[1,2-a][1,5]diazocine-8-carboxamide]
times higher affinities than the Smac AVPI peptide [1]: 50–100 times
antagonism of XIAP BIR3 and restoration of caspase-9 activity [2]: completely antagonizes XIAP and restores the activity of caspase-9
cIAP1 degradation ([3]; 100 nM for 15 min): complete degradation
induction of cIAP1 degradation ([3]; at concentrations as low as 10 nM): effectively induces cIAP1 degradation
share of cell lines in which cell growth is effectively inhibited [4]: approximately 15%
cells that underwent cell death [5]: More than 50%
activation of caspase-3 and cleavage of PARP [6]: robust activation of caspase-3 and cleavage of PARP
toxicity (cell death) against normal-like cells [7]: minimal toxicity
toxicity (cell death) against normal cells [8]: minimal toxicity
Cmax [9]: ~4 µM
AUC ([10]; in vivo): 198 µg·h/mL
Cmax ([10]; plasma): 17 µM
processing of procaspase-8 in tumor tissues ([11]; single oral dose 100 mg/kg, 2-hr and 6-hr time-points): effectively induces processing of procaspase-8
PARP cleavage in tumor tissues ([11]; single oral dose 100 mg/kg, at 2 hr, maximum at 6 hr, still evident after 16 hr): cleavage of the apoptosis marker, PARP
cIAP1 degradation in tumor tissues ([11]; single oral dose 100 mg/kg, at the 2-hr time-point, persists for 16 hr): effectively induced cIAP1 degradation
tolerability [12]: well tolerated
Cmax ([13]; iv, 10 mg/kg): 5 µM
Cmax ([13]; po, 10 mg/kg): 1.5 µM
Cmax ([13]; po, 30 mg/kg): 2 µM
Cmax ([13]; po, 100 mg/kg): 9.9 µM
tumor tissue penetration ([14]; SCID mice bearing MDA-MB-231 tumors): excellent tumor tissue penetration
Cmax ([14]; iv, 10 mg/kg): 6 µM
Cmax ([14]; po, 10 mg/kg): 0.5 µM
Cmax ([14]; po, 30 mg/kg): 3.9 µM
Cmax ([14]; po, 100 mg/kg): 18.2 µM
metabolic stability [15]: good metabolic stability
tolerability in dogs [16]: well tolerated
antitumor activity ([17]; 10 mg/kg oral gavage daily, 5 days a week for 2 weeks): no significant antitumor activity
toxicity to animals ([17]; oral dosing, MDA-MB-231 xenograft model in mice): minimal toxicity; also recorded: no signs of toxicity

CC(=O)O[C@@]12CO[C@@H]1C[C@H](O)[C@@]1(C)C(=O)[C@H](O)C3=C(C)[C@@H](OC(=O)[C@H](O)[C@@H](NC(=O)OC(C)(C)C)c4ccccc4)C[C@@](O)([C@@H](OC(=O)c4ccccc4)[C@H]21)C3(C)C.O.O.O [TXT, reference compound]
PARP cleavage in tumor tissues [11, 18]: minimal effect
cIAP1 degradation in tumor tissues [11, 18]: minimal effect
processing of procaspase-8 in tumor tissues [11, 18]: induces the processing of procaspase-8
antitumor activity ([17]; 7.5 mg/kg intravenously, once a week for 2 weeks): strong antitumor activity

Reference: article PMC3520070 (Journal of medicinal chemistry, 2011)
